“And” between values parts separate entries of the source, which are not always exact repeats. Equal values may be shown once. Read-outs that look alike come from different tables or passages of the source.
What was measured:
5-HT2C receptor = molecular target: T1, 5-HT2C receptor (Homo sapiens, UniProt P28335); test: cell-based; conditions: agonist activity, Ca2+ flux, HEK293 cells
T1 construct: host or cells: HEK293
T1 sequence (P28335 33-458): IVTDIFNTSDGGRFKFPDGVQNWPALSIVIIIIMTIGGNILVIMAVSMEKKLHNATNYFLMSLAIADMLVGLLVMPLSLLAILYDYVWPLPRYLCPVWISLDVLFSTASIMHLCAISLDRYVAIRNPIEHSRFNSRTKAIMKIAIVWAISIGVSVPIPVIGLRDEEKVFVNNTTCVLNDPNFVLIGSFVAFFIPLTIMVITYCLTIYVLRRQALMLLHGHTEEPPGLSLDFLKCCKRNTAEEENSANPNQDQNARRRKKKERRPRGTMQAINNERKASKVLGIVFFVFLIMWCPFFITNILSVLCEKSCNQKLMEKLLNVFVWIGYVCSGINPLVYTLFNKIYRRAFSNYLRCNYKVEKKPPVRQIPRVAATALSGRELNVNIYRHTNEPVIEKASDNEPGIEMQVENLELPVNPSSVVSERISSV

5-HT2A receptor = molecular target: T2, 5-HT2A receptor (Homo sapiens, UniProt P28223); test: FLIPR Ca2+ flux functional assay, 5-HT2A; type: cell-based; conditions: agonist activity, Ca2+ flux, HEK293 cells
T2 construct: host or cells: HEK293

5-HT2B receptor = molecular target: T3, 5-HT2B receptor (Homo sapiens, UniProt P41595); test: cell-based; conditions: agonist activity, Ca2+ flux, CHO-K1 cells
T3 construct: host or cells: CHO-K1

[1] = In vivo pharmacokinetics, plasma and brain exposure after IP dosing; parameters: species or system male C57BL/6 mice
Procedure: The systemic exposure of selected examples was studied in non-fasted male C57BL/6 mice weighing between 18.9-25.5 g. Mice had access to food and water ad libitum throughout the pre- and post-dose sampling period.
On the day of dosing, the formulation of each compound was prepared by dissolving solid compound in phosphate buffer saline (50 mM) using vortexing, creating colourless solutions (pH 6.4-6.5) for each compound.
Compounds were dosed to mice by IP injection (10 mL/kg dose volume via a 27G needle; n=9 mice per compound) and blood samples were collected at 5 and 30 min; 1, 2 and 4 h post-dose (n=3 mice per time point for each compound). A maximum of three blood samples were obtained from each mouse, with plasma samples being taken via submandibular bleed (approximately 120 μL). Once collected, blood samples were centrifuged immediately, supernatant plasma was removed, and stored at −80° C. until analysis by LCMS. In addition, at the 5 and 30 min and 4 h post-dose time points, the whole brain was rapidly removed from the carcass soon after the blood collection. The whole brains were blotted to remove excess blood, placed into pre-weighed polypropylene vials, and weighed. The brains were snap frozen in dry ice and subsequently stored frozen (−80° C.) until analysis.
Concentrations of test compound in plasma and tissue samples were determined using an LCMS/MS method validated for linearity, accuracy, precision, matrix factor and recovery (Table 2). Test compound standard solutions were diluted from a concentrated stock solution (32 mM in H2O) using 50% can in H2O (v/v) and a calibration curve was prepared in a matched matrix to the test samples.
Plasma: The plasma calibration curve was prepared by spiking aliquots of blank mouse plasma (25 μL) with test compound standard solutions (5 μL) and internal standard solution (5 μL of diazepam, 5 μg/mL in 50% acetonitrile in water). Test plasma samples (25 μL) were thawed, mixed, and then spiked with internal standard solution (5 μL). Plasma protein precipitation was performed by addition of acetonitrile (3-fold volume ratio) and thorough vortex mixing. Samples were centrifuged (RCF=9391×g) for 3 minutes and the supernatant (90 μL) was collected for analysis.
Tissue: Pre-weighed tissue samples (brain) were homogenised using a glass rod in buffer containing an EDTA/potassium fluoride solution (0.1 M/4 mg/mL) as a stabilisation cocktail to minimise the potential for ex vivo degradation (3 mL cocktail/g tissue). The tissue homogenate was briefly centrifuged (RCF=79×g) for 10 seconds to separate the foam layer before transferring an aliquot of the tissue homogenate (200 μL) to a fresh Eppendorf tube for sample extraction. Calibration standards were prepared by spiking blank brain homogenate (200 μL) with the solution standards (10 μL) and the internal standard (10 μL). Study samples were similarly prepared, except that acetonitrile (10 μL) was added instead of solution standards to maintain the same volume. Protein precipitation was carried out by the addition of a 3-fold volume of acetonitrile, followed by vortex mixing and centrifugation (RCF=9391×g) for 3 min to recover the supernatant for analysis.
Replicate analysis: Triplicate analytical replicate (ARs) samples were prepared similarly to the standards for each sample type at three concentrations (50, 500 and 2,000 ng/ml) and repeat injections of these ARs were included throughout the analytical run to assess assay performance. The extraction of the test compound from the standards and ARs were conducted as described above.

[2] = 0.083 h, IP 10 mg/kg, individual mouse, 10 mg/kg
[3] = 0.5 h, IP 10 mg/kg, individual mouse, 10 mg/kg
[4] = 4 h, IP 10 mg/kg, individual mouse, 10 mg/kg
[5] = mouse, plasma, male C57BL/6 mice, IP 10 mg/kg

T3 sequence (P41595 whole entry): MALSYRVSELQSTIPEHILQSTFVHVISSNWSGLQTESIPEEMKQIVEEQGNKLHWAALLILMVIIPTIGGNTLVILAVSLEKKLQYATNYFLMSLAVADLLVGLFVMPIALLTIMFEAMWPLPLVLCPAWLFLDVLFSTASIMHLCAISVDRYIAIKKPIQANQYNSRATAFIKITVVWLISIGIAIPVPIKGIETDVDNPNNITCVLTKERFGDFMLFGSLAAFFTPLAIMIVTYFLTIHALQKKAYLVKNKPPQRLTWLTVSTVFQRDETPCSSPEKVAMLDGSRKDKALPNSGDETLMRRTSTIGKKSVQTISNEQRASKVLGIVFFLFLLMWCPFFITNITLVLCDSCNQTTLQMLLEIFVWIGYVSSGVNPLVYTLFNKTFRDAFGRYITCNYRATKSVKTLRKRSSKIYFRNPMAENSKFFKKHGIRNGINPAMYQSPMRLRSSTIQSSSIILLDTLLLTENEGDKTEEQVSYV
T2 sequence (P28223 whole entry): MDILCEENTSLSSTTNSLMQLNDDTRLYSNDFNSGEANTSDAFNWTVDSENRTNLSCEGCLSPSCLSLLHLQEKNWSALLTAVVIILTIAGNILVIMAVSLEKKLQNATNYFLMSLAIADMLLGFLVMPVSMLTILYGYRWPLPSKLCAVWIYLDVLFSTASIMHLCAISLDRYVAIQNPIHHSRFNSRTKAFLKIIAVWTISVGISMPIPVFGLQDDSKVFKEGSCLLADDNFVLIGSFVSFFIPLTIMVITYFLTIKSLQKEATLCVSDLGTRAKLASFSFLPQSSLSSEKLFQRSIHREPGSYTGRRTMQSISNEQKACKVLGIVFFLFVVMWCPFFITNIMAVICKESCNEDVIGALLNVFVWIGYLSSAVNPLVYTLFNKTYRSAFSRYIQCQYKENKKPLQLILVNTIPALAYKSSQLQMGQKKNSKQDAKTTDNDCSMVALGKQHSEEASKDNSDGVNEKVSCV

Structure (SMILES): CCN(C)CCc1c[nH]c2cc(C)c(OC)cc12 [Example P-42, N-ethyl-2-(5-methoxy-6-methyl-1H-indol-3-yl)-N-methylethan-1-amine]
- Emax (5-HT2C receptor): 85.8%
- EC50 (5-HT2C receptor; read-out: 5-HT2C EC50): 68.5 nM
- Emax (5-HT2A receptor): 88.2%
- EC50 (5-HT2A receptor; read-out: 5-HT2A EC50): 26.5 nM
- Emax (5-HT2B receptor): 8.39%
- EC50 (5-HT2B receptor; read-out: 5-HT2B EC50): > 10000 nM
- B:P Ratio, Individual [1, 2]: 3.8 and 7.1 and 2.0
- Plasma Concentration, Individual [1, 2]: 1760 nM and 3440 nM
- concentration at 0.5 h ([1]; 0.083 h, IP 10 mg/kg, individual mouse, 10 mg/kg, read-out: Brain Parenchyma Concentration, Individual): 12600 nM and 7010 nM
- B:P Ratio, Individual [1, 3]: 20 and 11
- Plasma Concentration, Individual [1, 3]: 1880 nM and 1820 nM
- concentration at 0.5 h ([1]; 0.5 h, IP 10 mg/kg, individual mouse, 10 mg/kg, read-out: Brain Parenchyma Concentration, Individual): 37300 nM and 19900 nM
- B:P Ratio, Individual [1, 4]: 18 and 14 and 8.2
- Plasma Concentration, Individual [1, 4]: 38.4 nM and 20.9 nM
- concentration at 0.5 h ([1]; 4 h, IP 10 mg/kg, individual mouse, 10 mg/kg, read-out: Brain Parenchyma Concentration, Individual): 408 nM and 530 nM and 171 nM
- concentration at 0.083 h ([1]; male, C57BL/6, mouse, brain, ip, 10 mg/kg, 0.083 h, individual mouse, read-out: Brain Parenchyma Concentration, Individual): 10100 nM
- concentration at 0.083 h ([1]; male, C57BL/6, mouse, brain, ip, 10 mg/kg, 0.083 h, n = 3, read-out: Brain Parenchyma Concentration, Mean ± SD): 9900 ± 2790 nM
- concentration at 0.5 h ([1]; male, C57BL/6, mouse, brain, ip, 10 mg/kg, 0.5 h, individual mouse, read-out: Brain Parenchyma Concentration, Individual): 21300 nM
- concentration at 0.5 h ([1]; male, C57BL/6, mouse, brain, ip, 10 mg/kg, 0.5 h, n = 3, read-out: Brain Parenchyma Concentration, Mean ± SD): 26200 ± 9680 nM
- concentration at 4 h ([1]; male, C57BL/6, mouse, brain, ip, 10 mg/kg, 4 h, n = 3, read-out: Brain Parenchyma Concentration, Mean ± SD): 370 ± 182 nM
- Kp at 0.083 h ([1]; male, C57BL/6, mouse, brain/plasma, ip, 10 mg/kg, 0.083 h, n = 3, read-out: B:P Ratio, Mean ± SD): 4.3 ± 2.6
- Kp at 0.5 h ([1]; male, C57BL/6, mouse, brain/plasma, ip, 10 mg/kg, 0.5 h, individual mouse, read-out: B:P Ratio, Individual): 18
- Kp at 0.5 h ([1]; male, C57BL/6, mouse, brain/plasma, ip, 10 mg/kg, 0.5 h, n = 3, read-out: B:P Ratio, Mean ± SD): 16 ± 4.6
- Kp at 4 h ([1]; male, C57BL/6, mouse, brain/plasma, ip, 10 mg/kg, 4 h, n = 3, read-out: B:P Ratio, Mean ± SD): 13 ± 5
- concentration at 0.083 h ([1]; male, C57BL/6, mouse, plasma, ip, 10 mg/kg, 0.083 h, individual mouse, read-out: Plasma Concentration, Individual): 2650 nM
- concentration at 0.083 h ([1]; male, C57BL/6, mouse, plasma, ip, 10 mg/kg, 0.083 h, n = 3, read-out: Plasma Concentration, Mean ± SD): 2620 ± 840 nM
- concentration at 0.5 h ([1]; male, C57BL/6, mouse, plasma, ip, 10 mg/kg, 0.5 h, individual mouse, read-out: Plasma Concentration, Individual): 1200 nM
- concentration at 0.5 h ([1]; male, C57BL/6, mouse, plasma, ip, 10 mg/kg, 0.5 h, n = 3, read-out: Plasma Concentration, Mean ± SD): 1640 ± 376 nM
- concentration at 4 h ([1]; male, C57BL/6, mouse, plasma, ip, 10 mg/kg, 4 h, individual mouse, read-out: Plasma Concentration, Individual): 22.5 nM
- concentration at 4 h ([1]; male, C57BL/6, mouse, plasma, ip, 10 mg/kg, 4 h, n = 3, read-out: Plasma Concentration, Mean ± SD): 27.3 ± 9.7 nM
- Cmax [1, 5]: 2620 nM
- Tmax [1, 5]: 4.98 min
- AUC(0-inf) ([1]; mouse, plasma, male C57BL/6 mice, IP 10 mg/kg, read-out: Plasma AUC0-inf): 2.36 µM·h
- half-life ([1]; mouse, male C57BL/6 mice, IP 10 mg/kg, plasma, read-out: Apparent T1/2 (converted)): 36 min

From US20250101038A1, “COMPOUNDS” (priority 2021, published 2025)
